# Laboratory results as given in patent US20230265151A1, “GIP/GLP1 CO-AGONIST COMPOUNDS” (priority 2020, published 2023).
# Where two headings read alike, the source gives them in different places. *1 amine or outer side, *2 acyl side, *3 side chain or, on linkers, in order; H or OH if unused. Where a SMILES comes first, the peptide text is derived from it. Side-chain parts run from the residue outwards. [ ]: non-standard residue; d: D form. The star is where a group is joined. αMePhe(2-F) = C[C@](N)(Cc1ccccc1F)C(=O)O; γGlu = O=C(O)[C@H](CCC(=O)[*:2])N[*:1]; C14 diacid = O=C(O)CCCCCCCCCCCCC(=O)*; αMeY = C[C@](N)(Cc1ccc(O)cc1)C(=O)O; 4Pal = N[C@@H](Cc1ccncc1)C(=O)O; αMeL = CC(C)C[C@](C)(N)C(=O)O; Orn = NCCC[C@H](N)C(=O)O; AEEA = NCCOCCOCC(=O)O; Aib = CC(C)(N)C(=O)O
# How the values were obtained:
# [1] = target: T1, human GLP-1 receptor (hGLP-1R) (Homo sapiens, UniProt P43220); assay: [125I]-GLP-1 binding, SPA with membranes of HEK293 cells expressing hGLP-1R; conditions: human GLP-1R; geometric mean (SEM, n); read-out: Binding Affinity Ki, nM (SEM, n) hGLP-1R
# T1 construct: expressed in transfected cells; crude membranes
# [2] = target: T2, hGCGR (Homo sapiens, UniProt P47871); assay: Functional cAMP formation (HTRF) in HEK-293 clonal cells expressing hGCGR, 0.1% bovine casein, without or with 1.0% human serum albumin; format: cell-based; conditions: read-out: hGCGR EC50, nM (SEM, n)
# T2 construct: expressed in transfected cells
# Method in brief: (§1)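 Readings of the HTRF 665/620 nm ratio, which falls as cAMP rises, were converted to nM cAMP using a standard curve after 30 min peptide exposure at 37° C.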
# [3] = target: T3, human Gcg receptor (hGcgR) (Homo sapiens, UniProt P47871); assay: [125I]-Glucagon binding, SPA with membranes of HEK293 cells expressing hGcgR; conditions: human GcgR; geometric mean (SEM, n); read-out: Binding Affinity Ki, nM (SEM, n) hGCGR
# T3 construct: expressed in transfected cells; crude membranes
# [4] = target: hGLP-1R (Homo sapiens, UniProt P43220); assay: Functional cAMP formation (HTRF) in HEK-293 clonal cells expressing hGLP-1R, 0.1% bovine casein, without or with 1.0% human serum albumin; format: cell-based; set-up: expressed in transfected cells; conditions: for Emax: HEK293, cAMP, percent of maximal response to GLP-1(7-36)NH2, read-out: hGLP-1R Emax, % ± SEM; for EC50: read-out: hGLP-1R EC50, nM (SEM, n)
# Method in brief: as §1
# [5] = target: T4, hGIPR (Homo sapiens, UniProt P48546); assay: Functional cAMP formation (HTRF) in HEK-293 clonal cells expressing hGIPR, 0.1% bovine casein, without or with 1.0% human serum albumin; format: cell-based; conditions: for Emax: read-out: hGIPR Emax, % ± SEM; for EC50: geometric mean, read-out: hGIPR EC50, nM (SEM, n)
# T4 construct: expressed in transfected cells
# T4 sequence (P48546 22-466): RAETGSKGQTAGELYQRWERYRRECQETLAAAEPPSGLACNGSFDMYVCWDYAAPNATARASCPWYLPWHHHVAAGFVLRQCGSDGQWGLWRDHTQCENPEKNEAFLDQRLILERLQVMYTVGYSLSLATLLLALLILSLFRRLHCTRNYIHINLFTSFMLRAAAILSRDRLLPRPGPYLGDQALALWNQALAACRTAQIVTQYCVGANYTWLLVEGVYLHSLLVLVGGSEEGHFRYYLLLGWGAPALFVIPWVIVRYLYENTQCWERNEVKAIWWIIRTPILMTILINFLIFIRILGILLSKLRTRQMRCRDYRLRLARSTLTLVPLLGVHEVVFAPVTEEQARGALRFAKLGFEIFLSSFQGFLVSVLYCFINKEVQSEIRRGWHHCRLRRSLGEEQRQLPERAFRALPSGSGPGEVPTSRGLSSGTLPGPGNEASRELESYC
# Method in brief: as §1
# [6] = cAMP, 37° C., 0.1% bovine casein (no human serum albumin), geometric mean
# [7] = cAMP, 37° C., 0.1% bovine casein and 1.0% human serum albumin, geometric mean (SEM, n)
# [8] = 37° C., 0.1% bovine casein, arithmetic mean
# [9] = HEK293, cAMP, 37° C., 0.1% bovine casein and 1.0% human serum albumin, percent of maximal response to GIP(1-42)NH2
# [10] = cAMP, 37° C., 0.1% bovine casein (no human serum albumin)
# [11] = 0.1% bovine casein and 1.0% human serum albumin, 37° C., geometric mean
# [12] = cAMP, incubated at 37° C., 0.1% bovine casein (no human serum albumin), geometric mean
# [13] = 0.1% bovine casein and 1.0% human serum albumin, 37° C.
# [14] = HEK293, 0.1% bovine casein and 1.0% human serum albumin, 37° C., percent of maximal response to GIP(1-42)NH2
# [15] = HEK293, percent of maximal response to GIP(1-42)NH2, 37° C., 0.1% bovine casein, arithmetic mean
# [16] = cAMP, incubated at 37° C., 0.1% bovine casein (no human serum albumin)
# T2 sequence (P47871 26-477): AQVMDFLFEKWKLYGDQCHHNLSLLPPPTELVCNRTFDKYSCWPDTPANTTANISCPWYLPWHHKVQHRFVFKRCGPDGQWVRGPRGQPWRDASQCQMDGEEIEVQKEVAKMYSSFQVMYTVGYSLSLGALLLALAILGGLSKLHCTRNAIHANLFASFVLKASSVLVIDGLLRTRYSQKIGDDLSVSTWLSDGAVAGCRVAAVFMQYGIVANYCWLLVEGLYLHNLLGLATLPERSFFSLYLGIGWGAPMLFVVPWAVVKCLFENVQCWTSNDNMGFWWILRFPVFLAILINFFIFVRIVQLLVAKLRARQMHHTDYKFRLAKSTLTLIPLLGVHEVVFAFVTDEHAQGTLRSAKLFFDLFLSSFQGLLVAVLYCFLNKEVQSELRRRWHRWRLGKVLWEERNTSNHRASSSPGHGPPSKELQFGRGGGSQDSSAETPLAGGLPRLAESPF
# T3 sequence (P47871 26-477): as above
# Chain of hGLP-1R (P43220 24-463): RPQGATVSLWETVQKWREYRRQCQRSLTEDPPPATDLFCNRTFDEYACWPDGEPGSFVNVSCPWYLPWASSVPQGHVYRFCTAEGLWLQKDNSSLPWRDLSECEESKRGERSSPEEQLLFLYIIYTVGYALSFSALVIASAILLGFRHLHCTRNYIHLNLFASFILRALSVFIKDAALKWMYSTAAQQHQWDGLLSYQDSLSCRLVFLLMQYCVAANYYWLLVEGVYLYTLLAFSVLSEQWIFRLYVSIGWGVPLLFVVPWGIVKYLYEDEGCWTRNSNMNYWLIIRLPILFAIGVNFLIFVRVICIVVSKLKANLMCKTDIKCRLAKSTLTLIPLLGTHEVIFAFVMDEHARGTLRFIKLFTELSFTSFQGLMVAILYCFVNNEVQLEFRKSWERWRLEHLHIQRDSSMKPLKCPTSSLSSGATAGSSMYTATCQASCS
# T1 sequence (P43220 24-463): as above
smiles,measurement,setting,value
CC[C@H](C)[C@H](NC(=O)[C@H](CC(C)C)NC(=O)[C@](C)(Cc1ccc(O)cc1)NC(=O)[C@H](CCCCNC(=O)COCCOCCNC(=O)[C@H]1CC[C@H](CNC(=O)CC[C@H](NC(=O)CCCCCCCCCCCCC(=O)O)C(=O)O)CC1)NC(=O)[C@@H](NC(=O)[C@H](Cc1ccccc1)NC(=O)[C@H](CCCN)NC(=O)C(C)(C)NC(=O)[C@H](CCC(N)=O)NC(=O)[C@H](C)NC(=O)[C@H](CCC(N)=O)NC(=O)[C@H](CCCN)NC(=O)[C@H](CC(=O)O)NC(=O)[C@H](CC(C)C)NC(=O)[C@](C)(CC(C)C)NC(=O)[C@@H](NC(=O)C(C)(C)NC(=O)[C@H](Cc1ccncc1)NC(=O)[C@H](CC(=O)O)NC(=O)[C@H](CO)NC(=O)[C@@H](NC(=O)[C@](C)(Cc1ccccc1F)NC(=O)[C@@H](NC(=O)CNC(=O)[C@H](CCC(=O)O)NC(=O)C(C)(C)NC(=O)[C@@H](N)Cc1ccc(O)cc1)[C@@H](C)O)[C@@H](C)O)[C@@H](C)CC)[C@@H](C)CC)C(=O)N[C@@H](CCCCNC(=O)COCCOCCNC(=O)[C@H]1CC[C@H](CNC(=O)CC[C@H](NC(=O)CCCCCCCCCCCCC(=O)O)C(=O)O)CC1)C(=O)NCC(=O)NCC(=O)N1CCC[C@H]1C(=O)N[C@@H](CO)C(=O)N[C@@H](CO)C(=O)NCC(=O)N[C@@H](C)C(=O)N1CCC[C@H]1C(=O)N1CCC[C@H]1C(=O)N1CCC[C@H]1C(=O)N[C@@H](CO)C(N)=O [Example 472],Ki,[1],0.254 nM
same,EC50,[2]; [6],> 9950 nM
same,EC50,[2]; [7],> 9950 nM
same,Ki,[3],258 nM
same,Emax,[4]; [8],118%
same,EC50,[4]; [6],0.154 nM
same,Emax,[5]; [9],76.3%
same,EC50,[5]; [10],0.0131 nM
CC[C@H](C)[C@H](NC(=O)[C@H](CC(C)C)NC(=O)[C@](C)(Cc1ccc(O)cc1)NC(=O)[C@@H](CCC(=O)O)NC(=O)[C@@H](NC(=O)[C@H](Cc1ccccc1)NC(=O)[C@H](CCC(=O)O)NC(=O)C(C)(C)NC(=O)[C@H](CCC(N)=O)NC(=O)[C@H](C)NC(=O)[C@H](CCCCNC(=O)COCCOCCNC(=O)COCCOCCNC(=O)CC[C@H](NC(=O)CCCCCCCCCCCCC(=O)O)C(=O)O)NC(=O)[C@H](CCCN)NC(=O)[C@H](CC(=O)O)NC(=O)[C@H](CC(C)C)NC(=O)[C@](C)(CC(C)C)NC(=O)[C@@H](NC(=O)[C@H](CO)NC(=O)[C@H](Cc1ccncc1)NC(=O)[C@H](CC(=O)O)NC(=O)[C@H](CO)NC(=O)[C@@H](NC(=O)[C@](C)(Cc1ccccc1F)NC(=O)[C@@H](NC(=O)CNC(=O)[C@H](CCC(=O)O)NC(=O)C(C)(C)NC(=O)[C@@H](N)Cc1ccc(O)cc1)[C@@H](C)O)[C@@H](C)O)[C@@H](C)CC)[C@@H](C)CC)C(=O)N[C@@H](CCCCNC(=O)COCCOCCNC(=O)COCCOCCNC(=O)CC[C@H](NC(=O)CCCCCCCCCCCCC(=O)O)C(=O)O)C(=O)NCC(=O)NCC(=O)N1CCC[C@H]1C(=O)N[C@@H](CO)C(=O)N[C@@H](CO)C(=O)NCC(=O)N[C@@H](C)C(=O)N1CCC[C@H]1C(=O)N1CCC[C@H]1C(=O)N1CCC[C@H]1C(=O)N[C@@H](CO)C(N)=O [Example 17],EC50,[2]; [11],> 9950 nM
same,EC50,[2]; [12],> 9950 nM
same,Ki,[3],> 966 nM
same,EC50,[4]; [11],48.9 nM
same,EC50,[5]; [13],0.605 nM
same,Emax,[5]; [14],88.9 ± 2.36%
same,Emax,[5]; [15],97.5 ± 5.04%
same,EC50,[5]; [16],0.0129 nM
CC[C@H](C)[C@H](NC(=O)[C@H](CC(C)C)NC(=O)[C@](C)(Cc1ccc(O)cc1)NC(=O)[C@@H](CCC(=O)O)NC(=O)[C@@H](NC(=O)[C@H](Cc1ccccc1)NC(=O)[C@H](CCC(=O)O)NC(=O)C(C)(C)NC(=O)[C@H](CCC(N)=O)NC(=O)[C@H](C)NC(=O)[C@H](CCCCNC(=O)COCCOCCNC(=O)COCCOCCNC(=O)[C@@H](N)CCCCNC(=O)CC[C@H](NC(=O)CCCCCCCCCCCCC(=O)O)C(=O)O)NC(=O)[C@H](CCCN)NC(=O)[C@H](CC(=O)O)NC(=O)[C@H](CC(C)C)NC(=O)[C@](C)(CC(C)C)NC(=O)[C@@H](NC(=O)[C@H](CO)NC(=O)[C@H](Cc1ccncc1)NC(=O)[C@H](CC(=O)O)NC(=O)[C@H](CO)NC(=O)[C@@H](NC(=O)[C@](C)(Cc1ccccc1F)NC(=O)[C@@H](NC(=O)CNC(=O)[C@H](CCC(=O)O)NC(=O)C(C)(C)NC(=O)[C@@H](N)Cc1ccc(O)cc1)[C@@H](C)O)[C@@H](C)O)[C@@H](C)CC)[C@@H](C)CC)C(=O)N[C@@H](CCC(=O)O)C(=O)NCC(=O)NCC(=O)N[C@@H](CCCCNC(=O)COCCOCCNC(=O)COCCOCCNC(=O)[C@@H](N)CCCCNC(=O)CC[C@H](NC(=O)CCCCCCCCCCCCC(=O)O)C(=O)O)C(=O)N[C@@H](CO)C(=O)N[C@@H](CO)C(=O)NCC(=O)N[C@@H](C)C(=O)N1CCC[C@H]1C(=O)N1CCC[C@H]1C(=O)N1CCC[C@H]1C(=O)N[C@@H](CO)C(N)=O [Example 34],EC50,[2]; [11],> 9950 nM
same,EC50,[2]; [12],> 9950 nM
same,Ki,[3],> 957 nM
same,EC50,[4]; [11],19.8 nM
same,EC50,[4]; [12],1 nM
same,EC50,[5]; [13],0.213 nM
same,Emax,[5]; [14],89.1 ± 2%
same,Emax,[5]; [15],97.4 ± 2.34%
same,EC50,[5]; [16],0.0148 nM
CC[C@H](C)[C@H](NC(=O)[C@H](CC(C)C)NC(=O)[C@](C)(Cc1ccc(O)cc1)NC(=O)[C@@H](CCC(=O)O)NC(=O)[C@@H](NC(=O)[C@H](Cc1ccccc1)NC(=O)[C@H](CCCCNC(=O)COCCOCCNC(=O)COCCOCCNC(=O)CC[C@H](NC(=O)CCCCCCCCCCCCC(=O)O)C(=O)O)NC(=O)C(C)(C)NC(=O)[C@H](CCC(N)=O)NC(=O)[C@H](C)NC(=O)[C@H](CCC(N)=O)NC(=O)[C@H](CCCN)NC(=O)[C@H](CC(=O)O)NC(=O)[C@H](CC(C)C)NC(=O)[C@](C)(CC(C)C)NC(=O)[C@@H](NC(=O)C(C)(C)NC(=O)[C@H](Cc1ccncc1)NC(=O)[C@H](CC(=O)O)NC(=O)[C@H](CO)NC(=O)[C@@H](NC(=O)[C@](C)(Cc1ccccc1F)NC(=O)[C@@H](NC(=O)CNC(=O)[C@H](CCC(=O)O)NC(=O)C(C)(C)NC(=O)[C@@H](N)Cc1ccc(O)cc1)[C@@H](C)O)[C@@H](C)O)[C@@H](C)CC)[C@@H](C)CC)C(=O)N[C@@H](CCC(=O)O)C(=O)NCC(=O)NCC(=O)N1CCC[C@H]1C(=O)N[C@@H](CO)C(=O)N[C@@H](CO)C(=O)NCC(=O)N[C@@H](C)C(=O)N1CCC[C@H]1C(=O)N1CCC[C@H]1C(=O)N1CCC[C@H]1C(=O)N[C@@H](CO)C(=O)N[C@@H](CCCCNC(=O)COCCOCCNC(=O)COCCOCCNC(=O)CC[C@H](NC(=O)CCCCCCCCCCCCC(=O)O)C(=O)O)C(N)=O [Example 489] (H-Y[Aib]EGT[αMePhe(2-F)]TSD[4Pal][Aib]I[αMeL]LD[Orn]QAQ[Aib]K([AEEA-AEEA-γGlu-C14 diacid])FI[dE][αMeY]LIEGGPSSGAPPPSK([AEEA-AEEA-γGlu-C14 diacid])-NH2),EC50,[2]; [6],> 10100 nM
same,EC50,[2]; [7],> 9950 nM
same,Ki,[3],> 957 nM
same,Emax,"[4]; 37° C., 0.1% bovine casein and 1.0% human serum albumin",98.7%
same,Emax,[4]; [8],112%
same,EC50,[4]; [6],0.257 nM
same,EC50,[4]; [7],13.5 nM
same,Emax,[5]; [9],79.4%
same,EC50,[5]; [10],0.0131 nM
